From patent US11399540B2, “Molecules having pesticidal utility, and intermediates, compositions, and processes, related thereto” (CORTEVA AGRISCIENCE LLC, priority 2017, dated 2022)

Columns and labels:
[1] = system: Beet Armyworm (Spodoptera exigua, LAPHEG); assay: Bioassay on Beet Armyworm (BAW), 128-well diet tray assay; type: in vivo; conditions: 168 h, 50 μg/cm^2 of test molecule on artificial diet, second instar larvae, 25° C., five to seven days, average of eight wells, read-out: BAW % Control (or Mortality) rating
Protocol: (§1) Certain molecules disclosed in this document were tested against BAW and CL using procedures described in the following examples. In the reporting of the results, the “BAW & CL Rating Table” was used (See Table Section).
Bioassays on BAW were conducted using a 128-well diet tray assay. One to five second instar BAW larvae were placed in each well (3 mL) of the diet tray that had been previously filled with 1 mL of artificial diet to which 50 μg/cm^2 of the test molecule (dissolved in 50 μL of 90:10 acetone-water mixture) had been applied (to each of eight wells) and then allowed to dry. Trays were covered with a clear self-adhesive cover, vented to allow gas exchange, and held at 25° C., 14:10 light-dark for five to seven days. Percent mortality was recorded for the larvae in each well; activity in the eight wells was then averaged. The results are indicated in the table entitled “Table ABC: Biological Results” (See Table Section).

[2] = system: Cabbage Looper (Trichoplusia ni, TRIPNI); assay: Bioassay on Cabbage Looper (CL), 128-well diet tray assay; type: in vivo; conditions: 168 h, 50 μg/cm^2 of test molecule on artificial diet, second instar larvae, 25° C., five to seven days, average of eight wells, read-out: CL % Control (or Mortality) rating
Protocol: as §1
Bioassays on CL were conducted using a 128-well diet tray assay. One to five second instar CL larvae were placed in each well (3 mL) of the diet tray that had been previously filled with 1 mL of artificial diet to which 50 μg/cm^2 of the test molecule (dissolved in 50 μL of 90:10 acetone-water mixture) had been applied (to each of eight wells) and then allowed to dry. Trays were covered with a clear self-adhesive cover, vented to allow gas exchange, and held at 25° C., 14:10 light-dark for five to seven days. Percent mortality was recorded for the larvae in each well; activity in the eight wells was then averaged. The results are indicated in the table entitled “Table ABC: Biological Results” (See Table Section).

| Structure (SMILES) | mortality at 50 µg/cm2 [1] | mortality at 50 µg/cm2 [2] |
| --- | --- | --- |
| Cc1ccc(OCC(F)(F)F)c(N2C(=O)CS/C2=N\C(=O)NCOc2ccc(-c3ncn(-c4ccc(OC(F)(F)F)cc4)n3)cc2)c1 [Compound F23, (Z)-1-(3-(5-Methyl-2-(2,2,2-trifluoroethoxy)phenyl)-4-oxothiazolidin-2-ylidene)-3-((4-(1-(4-(trifluoromethoxy)phenyl)-1H-1,2,4-triazol-3-yl)phenoxy)methyl)urea] | 50 to 100% | 50 to 100% |
| Cc1ccc(F)c(N2C(=O)CS/C2=N\C(=O)NCOc2ccc(-c3ncn(-c4ccc(OC(F)(F)F)cc4)n3)cc2)c1 [Compound F29, (Z)-1-(3-(2-Fluoro-5-methylphenyl)-4-oxothiazolidin-2-ylidene)-3-((4-(1-(4-(trifluoromethoxy)phenyl)-1H-1,2,4-triazol-3-yl)phenoxy)methyl)urea] | 50 to 100% | 50 to 100% |
| CCc1cccc(C)c1N1C(=O)CS/C1=N\C(=O)NCOc1ccc(-c2ncn(-c3ccc(OC(F)(F)F)cc3)n2)cc1 [Compound F30, (Z)-1-(3-(2-Ethyl-6-methylphenyl)-4-oxothiazolidin-2-ylidene)-3-((4-(1-(4-(trifluoromethoxy)phenyl)-1H-1,2,4-triazol-3-yl)phenoxy)methyl)urea] | 50 to 100% | 50 to 100% |
| COC(=O)c1ccc(N2C(=O)CS/C2=N\C(=O)NCOc2ccc(-c3ncn(-c4ccc(OC(F)(F)F)cc4)n3)cc2)c(C)c1 [Compound F26, Methyl (Z)-3-methyl-4-(4-oxo-2-((((4-(1-(4-(trifluoromethoxy)phenyl)-1H-1,2,4-triazol-3-yl)phenoxy)methyl)carbamoyl)imino)thiazolidin-3-yl)benzoate] | 0% | 50 to 100% |
| Cc1ccc(C(C)C)c(N2C(=O)CS/C2=N\C(=O)NC(C)Oc2ccc(-c3ncn(-c4ccc(OC(F)(F)F)cc4)n3)cc2)c1 (stereo not drawn) [Compound F24, (Z)-1-(3-(2-Isopropyl-5-methylphenyl)-4-oxothiazolidin-2-ylidene)-3-(1-(4-(1-(4-(trifluoromethoxy)phenyl)-1H-1,2,4-triazol-3-yl)phenoxy)ethyl)urea] | 50 to 100% | 50 to 100% |
| CCOc1ccccc1N1C(=O)CS/C1=N\C(=O)NCOc1ccc(-c2ncn(-c3ccc(OC(F)(F)F)cc3)n2)cc1 [Compound F25, (Z)-1-(3-(2-Ethoxyphenyl)-4-oxothiazolidin-2-ylidene)-3-((4-(1-(4-(trifluoromethoxy)phenyl)-1H-1,2,4-triazol-3-yl)phenoxy)methyl)urea] | 50 to 100% | 50 to 100% |
| COc1ccc(N2C(=O)CS/C2=N\C(=O)NCOc2ccc(-c3ncn(-c4ccc(OC(F)(F)F)cc4)n3)cc2)c(C)c1 [Compound F32, (Z)-1-(3-(4-Methoxy-2-methylphenyl)-4-oxothiazolidin-2-ylidene)-3-((4-(1-(4-(trifluoromethoxy)phenyl)-1H-1,2,4-triazol-3-yl)phenoxy)methyl)urea] | 50 to 100% | 50 to 100% |
| CSC(C)c1ccccc1N1C(=O)CS/C1=N\C(=O)NCOc1ccc(-c2ncn(-c3ccc(OC(F)(F)F)cc3)n2)cc1 (stereo not drawn) [Compound F31, (Z)-1-(3-(2-(1-(methylthio)ethyl)phenyl)-4-oxothiazolidin-2-ylidene)-3-((4-(1-(4-(trifluoromethoxy)phenyl)-1H-1,2,4-triazol-3-yl)phenoxy)methyl)urea] | 50 to 100% | 50 to 100% |
| CCCCc1ccccc1N1C(=O)CS/C1=N\C(=O)NCOc1ccc(-c2ncn(-c3ccc(OC(F)(F)F)cc3)n2)cc1 [Compound F28, (Z)-1-(3-(2-Butylphenyl)-4-oxothiazolidin-2-ylidene)-3-((4-(1-(4-(trifluoromethoxy)phenyl)-1H-1,2,4-triazol-3-yl)phenoxy)methyl)urea] | 0% | 0 to 50% |
| O=C(/N=C1\SCC(=O)N1c1cccc2c1CCCC2)NCOc1ccc(-c2ncn(-c3ccc(OC(F)(F)F)cc3)n2)cc1 [Compound F27, (Z)-1-(4-Oxo-3-(5,6,7,8-tetrahydronaphthalen-1-yl)thiazolidin-2-ylidene)-3-((4-(1-(4-(trifluoromethoxy)phenyl)-1H-1,2,4-triazol-3-yl)phenoxy)methyl)urea] | 50 to 100% | 50 to 100% |
| Cc1ccc(C(C)C)c(N2C(=O)CS/C2=N\C(=O)NCOc2ccc(-c3ncn(-c4ccc(OC(F)(F)F)cc4)n3)cc2)c1 [Compound F1, (Z)-1-(3-(2-isopropyl-5-methylphenyl)-4-oxothiazolidin-2-ylidene)-3-((4-(1-(4-(trifluoromethoxy)phenyl)-1H-1,2,4-triazol-3-yl)phenoxy)methyl)urea] | 50 to 100% | 50 to 100% |
| COc1ccc(CC(F)(F)F)c(N2C(=O)CS/C2=N\C(=O)NCOc2ccc(-c3ncn(-c4ccc(OC(F)(F)F)cc4)n3)cc2)c1 [Compound F2, (Z)-1-(3-(5-Methoxy-2-(2,2,2-trifluoroethyl)phenyl)-4-oxothiazolidin-2-ylidene)-3-((4-(1-(4-(trifluoromethoxy)phenyl)-1H-1,2,4-triazol-3-yl)phenoxy)methyl)urea] | 50 to 100% | 50 to 100% |
